Here are results for two compounds from patent US12005050B2, “Methods for preventing or treating H. pylori infection” (TENNOR THERAPEUTICS (SUZHOU) LIMITED, priority 2022, dated 2024).

In one data set the test system is Helicobacter pylori. The note with it: In China; cited from earlier work.
For data set [1] the following is noted: human, in vivo. The procedure:
The 40 patients were randomly allocated to four groups at a ratio of 1:1:1:1. […] The detection linear range was as below: • Compound I: Lower Limit Of Quantitation (LLOQ): 1.00 ng/mL; Upper Limit Of Quantitation (ULOQ): 1,000 ng/mL • Rabeprazole sodium: LLOQ: 2.00 ng/mL; […] […] Pharmacokinetics Evaluation Plasma drug concentrations of various groups at different time points were determined, including: arithmetic mean, standard deviation, minimum, median, maximum, geometric mean, coefficient of variation, and coefficient of geometric variation. The pharmacokinetic parameters calculated from the first and last administration were descriptively analyzed according to various trial groups, including: arithmetic mean, standard deviation, minimum value, median, maximum value, geometric mean, coefficient of variation, geometric coefficient of variation, etc. In addition, the accumulation index AUC0-tau, ss(D15)/AUC0-tau (D1) was calculated. […]

SMILES strings stand for the structures.

Turning to `Cc1ncc([N+](=O)[O-])n1CCO` [metronidazole], the “Resistance rate of Helicobacter pylori” value with Helicobacter pylori is reported as 40-70%.

For `COCCCOc1ccnc(C[S+]([O-])c2nc3ccccc3[n-]2)c1C.[Na+]` (centres unmarked) [rabeprazole, rabeprazole sodium, reference compound], in data set [1], the “Effect of amoxicillin on the major pharmacokinetic parameters of rabeprazole” value is listed as “no significant effect”.
